This assay concerns the target ATP-dependent translocase ABCB1 (Homo sapiens, UniProt P08183). The assay is described as follows: TP_TRANSPORTER: efflux in KB 8-5-11 Rluc cells. It is filed as functional, cell-based.

Chain of ATP-dependent translocase ABCB1 (P08183 whole entry): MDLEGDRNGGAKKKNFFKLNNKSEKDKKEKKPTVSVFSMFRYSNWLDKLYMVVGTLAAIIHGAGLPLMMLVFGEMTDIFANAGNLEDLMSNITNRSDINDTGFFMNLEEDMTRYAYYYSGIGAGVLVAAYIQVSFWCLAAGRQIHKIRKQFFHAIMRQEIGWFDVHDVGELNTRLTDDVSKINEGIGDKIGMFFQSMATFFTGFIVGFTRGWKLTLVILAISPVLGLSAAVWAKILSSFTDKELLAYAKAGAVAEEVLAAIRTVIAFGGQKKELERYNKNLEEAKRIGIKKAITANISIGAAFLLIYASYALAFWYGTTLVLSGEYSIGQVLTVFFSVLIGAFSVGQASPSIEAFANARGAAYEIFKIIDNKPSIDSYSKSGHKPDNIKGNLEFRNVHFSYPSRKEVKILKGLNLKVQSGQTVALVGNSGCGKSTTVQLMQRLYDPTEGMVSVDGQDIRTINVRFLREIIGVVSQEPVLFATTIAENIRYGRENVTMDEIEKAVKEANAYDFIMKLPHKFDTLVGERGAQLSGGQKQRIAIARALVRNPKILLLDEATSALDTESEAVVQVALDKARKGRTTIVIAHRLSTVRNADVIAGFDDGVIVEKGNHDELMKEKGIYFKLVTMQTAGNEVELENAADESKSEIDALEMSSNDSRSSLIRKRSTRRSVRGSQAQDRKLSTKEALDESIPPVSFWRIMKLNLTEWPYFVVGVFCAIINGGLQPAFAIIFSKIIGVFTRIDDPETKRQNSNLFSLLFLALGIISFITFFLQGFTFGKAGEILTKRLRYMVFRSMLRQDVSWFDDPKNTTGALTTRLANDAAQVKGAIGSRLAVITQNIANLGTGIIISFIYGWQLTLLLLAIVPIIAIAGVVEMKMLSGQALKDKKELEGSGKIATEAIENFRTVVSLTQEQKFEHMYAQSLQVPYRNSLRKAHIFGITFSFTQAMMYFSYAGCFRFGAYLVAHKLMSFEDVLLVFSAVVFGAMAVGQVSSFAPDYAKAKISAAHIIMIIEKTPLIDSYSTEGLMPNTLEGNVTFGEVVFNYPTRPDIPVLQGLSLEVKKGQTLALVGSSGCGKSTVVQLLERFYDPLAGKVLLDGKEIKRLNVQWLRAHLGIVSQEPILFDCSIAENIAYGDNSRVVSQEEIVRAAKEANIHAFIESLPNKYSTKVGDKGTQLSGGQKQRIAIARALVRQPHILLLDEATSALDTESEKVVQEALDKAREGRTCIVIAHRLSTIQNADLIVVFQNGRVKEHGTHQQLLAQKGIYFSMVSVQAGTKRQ

For `Oc1ccc(Cc2nc3c(Cc4ccccc4)nc(-c4ccc(O)cc4)cn3c2O)cc1` [COELENTERAZINE], the EC50 (usually the midpoint of the concentration-response curve) was determined as 0.147 µM. That is a sub-micromolar value.

These data come from ChEMBL document CHEMBL2074505, “Imaging reversal of multidrug resistance in living mice with bioluminescence: MDR1 P-glycoprotein transports coelenterazine” (Proc Natl Acad Sci U S A, 2004).
